Experimental data as given in patent US8563714B2, “Bridged spiro [2.4] heptane derivatives as ALX receptor and/or FPRL2 agonists” (Actelion Pharmaceuticals Ltd., priority 2009, dated 2013).

How the values were obtained:
human ALX receptor = target: T1, human ALX receptor (Homo sapiens, UniProt P25090); assay: Intracellular calcium measurements (FLIPR), agonistic activity in HEK293-hALXR-Gα16 cells; type: cell-based; details: Fluo-4 calcium FLIPR, normalized to WKYMVm 10 nM
T1 construct: expressed in transfected cells; host or cells: HEK293 (HEK293-hALXR-Gα16)
T1 sequence (P25090 1-351): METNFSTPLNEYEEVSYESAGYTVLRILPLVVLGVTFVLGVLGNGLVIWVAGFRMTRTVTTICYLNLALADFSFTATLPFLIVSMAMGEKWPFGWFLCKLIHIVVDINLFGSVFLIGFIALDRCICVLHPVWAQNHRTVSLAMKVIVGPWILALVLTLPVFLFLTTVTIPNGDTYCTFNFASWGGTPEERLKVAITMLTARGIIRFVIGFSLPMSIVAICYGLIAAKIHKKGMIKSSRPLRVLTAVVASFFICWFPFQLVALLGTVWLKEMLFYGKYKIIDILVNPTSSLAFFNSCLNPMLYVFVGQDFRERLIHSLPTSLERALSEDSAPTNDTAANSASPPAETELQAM
Summary of the method: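 Agonist-induced calcium flux was recorded by FLIPR (488/540 nm) in HEK293-hALXR-Gα16 cells pre-loaded with Fluo-4 AM (1 μM, 60 min, 37°C). Peak signal above baseline, after subtracting buffer addition, was expressed relative to WKYMVm at 10 nM final.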

human FPRL2 = target: T2, human FPRL2 (Homo sapiens, UniProt P25089); assay: Intracellular calcium measurements (FLIPR), agonistic activity in HEK293-hFPRL2-Gα16 cells; type: cell-based; details: Fluo-4 calcium FLIPR, normalized to GLY14-Humanin 100 nM
T2 construct: expressed in transfected cells; host or cells: HEK293 (HEK293-hFPRL2-Gα16)
T2 sequence (P25089 1-353): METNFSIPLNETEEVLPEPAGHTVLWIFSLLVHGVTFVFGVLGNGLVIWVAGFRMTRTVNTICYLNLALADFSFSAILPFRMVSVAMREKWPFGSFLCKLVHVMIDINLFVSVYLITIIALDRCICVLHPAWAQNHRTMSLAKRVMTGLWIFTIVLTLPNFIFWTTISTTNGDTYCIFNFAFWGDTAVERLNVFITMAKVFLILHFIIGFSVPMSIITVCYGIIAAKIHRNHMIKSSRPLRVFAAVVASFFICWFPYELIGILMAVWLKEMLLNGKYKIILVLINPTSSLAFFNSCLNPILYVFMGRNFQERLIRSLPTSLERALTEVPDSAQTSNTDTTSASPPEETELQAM
Summary of the method: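 Peak values after baseline subtraction are expressed relative to 100 nM Gly14-Humanin; compounds diluted in assay buffer from 10 mM DMSO stocks.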

Row | SMILES | EC50 (human ALX receptor) | EC50 (human FPRL2)
1 | Cc1nc(CCNC(=O)[C@H]2[C@H](C(=O)Nc3ccc(Br)cc3)[C@@H]3C=C[C@H]2C32CC2)[nH]c1C (relative stereo) [Example 64, (5R*)—N^5-(4-Bromophenyl)-(6R*)—N^6-(2-(4,5-dimethyl-1H-imidazol-2-yl)-ethyl)-(4S*,7R*)-[4,7-ethenylene-spiro[2.4]heptane]-5,6-dicarboxamide] | 19 nM | 68 nM
2 | CCCCNC(=O)[C@H]1[C@H](C(=O)Nc2ccc(Br)cc2)[C@@H]2C=C[C@H]1C21CC1 (relative stereo) [Example 74, (5R*)—N^5-(4-Bromophenyl)-(6R*)—N^6-(butyl)-(4S*,7R*)-[4,7-ethenylene-spiro[2.4]heptane]-5,6-dicarboxamide] | 72 nM | 18200 nM
3 | Cc1nc(CCNC(=O)[C@H]2[C@H](C(=O)Nc3ccc(Br)cc3)[C@H]3C=C[C@@H]2C32CC2)[nH]c1C (relative stereo) [Example 199, (5R*)—N^5-(2-(4,5-Dimethyl-1H-imidazol-2-yl)-ethyl)-(6R*)—N^6-(4-bromophenyl)-(4S*,7R*)-[4,7-ethenylene-spiro[2.4]heptane]-5,6-dicarboxamide] | 77 nM | 7.4 nM
4 | NCCCCNC(=O)[C@H]1[C@H](C(=O)Nc2ccc(Br)cc2)[C@H]2C=C[C@@H]1C21CC1 (relative stereo) [Example 339, (5R*)—N^5-(4-Aminobutyl)-(6R*)—N^6-(4-bromophenyl)-(4S*,7R*)-[4,7-ethenylene-spiro[2.4]heptane]-5,6-dicarboxamide] | 19 nM | 1480 nM
5 | NCCCCCNC(=O)[C@H]1[C@H](C(=O)Nc2ccc(Br)cc2)[C@H]2C=C[C@@H]1C21CC1 (relative stereo) [Example 340, (5R*)—N^5-(5-Aminopentyl)-(6R*)—N^6-(4-bromophenyl)-(4S*,7R*)-[4,7-ethenylene-spiro[2.4]heptane]-5,6-dicarboxamide] | 30 nM | 255 nM
6 | O=C(Nc1ccc(Br)cc1)C1C(C(=O)NC2CCC(CN3CCCC3)CC2)C2C=CC1C21CC1 (single isomer, unassigned) [Example 222] | 208 nM | 398 nM
7 | O=C(Nc1ncc(Br)s1)C1C(C(=O)NC2CCC(CO)CC2)C2CCC1C21CC1 (single isomer, unassigned) [Example 410] | 855 nM | 18200 nM
8 | O=C(Nc1ncc(Br)s1)C1C(C(=O)NC2CCC(CO)CC2)C2CCC1C21CC1 (single isomer, unassigned) [Example 411] | 61 nM | 6520 nM
9 | NCC1CCC(NC(=O)C2C(C(=O)Nc3ccc(Br)cc3)C3C=CC2C32CC2)CC1 (single isomer, unassigned) [Example 421] | 13 nM | 1700 nM
10 | CC(C)(C)OC(=O)NCCNC(=O)C1C(C(=O)Nc2ccc(Br)cc2)C2C=CC1C21CC1 (stereo not drawn) [Example 27, (5R*)—N^5-(4-Bromophenyl)-(6R*)—N^6-(2-tert-butoxycarbonyl-amino-ethyl)-(4S*,7R*)-[4,7-ethenylene-spiro[2.4]heptane]-5,6-dicarboxamide] | 4.2 nM | 1960 nM
11 | COCCNC(=O)[C@H]1[C@H](C(=O)Nc2ccc(Br)cc2)[C@@H]2C=C[C@H]1C21CC1 [Example 31, (5R)—N^5-(4-Bromophenyl)-(6R)—N^6-(2-methoxy-ethyl)-(4S,7R)-[4,7-ethenylene-spiro[2.4]heptane]-5,6-dicarboxamide] | 5 nM | 1410 nM
12 | COCCN(CCOC)C(=O)[C@H]1[C@H](C(=O)Nc2ccc(Br)cc2)[C@@H]2C=C[C@H]1C21CC1 [Example 63, (5R)—N^5-(4-Bromophenyl)-(6R)—N^6,N^6-bis-(2-methoxy-ethyl)-(4S,7R)-[4,7-ethenylene-spiro[2.4]heptane]-5,6-dicarboxamide] | 24 nM | 3950 nM
13 | CNC(=O)C(NC(=O)C1C(C(=O)Nc2ccc(Br)cc2)C2C=CC1C21CC1)C(C)(C)C [Example 96, (5R*)—N^5-(4-Bromophenyl)-(6R*)—N^6—[(2S)-3,3-dimethyl-1-(methylamino)-1-oxobutan-2-yl]-(4S*,7R*)-[4,7-ethenylene-spiro[2.4]heptane]-5,6-dicarboxamide] | 373 nM | 8050 nM
14 | COCC(Cc1ccccc1)NC(=O)C1C(C(=O)Nc2ccc(Br)cc2)C2C=CC1C21CC1 [Example 100, (5R*)—N^5-(4-Bromophenyl)-(6R*)—N^6-[(1S)-2-methoxy-1-benzyl-ethyl]-(4S*,7R*)-[4,7-ethenylene-spiro[2.4]heptane]-5,6-dicarboxamide] | 735 nM | 6110 nM
15 | Cc1nc(CCNC(=O)C2C(C(=O)Nc3ccc(Br)cc3)C3CCC2C32CC2)[nH]c1C (stereo not drawn) [Example 112, (5R*)—N^5-(4-Bromophenyl)-(6R*)—N^6-(2-(4,5-dimethyl-1H-imidazol-2-yl)-ethyl)-(4S*,7R*)-[4,7-ethylene-spiro[2.4]heptane]-5,6-dicarboxamide] | 8.3 nM | 57 nM
16 | O=C(NCCCCN1CCCC1)C1C(C(=O)NCCCn2ccnc2)C2C=CC1C21CC1 (stereo not drawn) [Example 141, (5R*)—N^5-(3-(1H-Imidazol-1-yl)-propyl)-(6R*)—N^6-(4-pyrrolidin-1-yl-butyl)-(4S*,7R*)-[4,7-ethenylene-spiro[2.4]heptane]-5,6-dicarboxamide] | 835 nM | 1600 nM
17 | Cc1cc(C)n(CCC(=O)NCC2C(C(=O)Nc3ccc(Br)cc3)C3C=CC2C32CC2)n1 (stereo not drawn) [Example 159, (5R*)—N^5-(4-Bromo-phenyl)-(6R*)-6-[(3-(3,5-dimethyl-pyrazol-1-yl)-propionylamino)-methyl]-(4S*,7R*)-[4,7-ethenylene-spiro[2.4]heptane]-5-carboxamide] | 13 nM | 2370 nM

The next molecules have a lower EC50 (human ALX receptor) than those just listed; values first:

Row | EC50 (human ALX receptor) | EC50 (human FPRL2) | SMILES
18 | 2.1 nM | 356 nM | O=C(Nc1ccc(Br)cc1)C1C(C(=O)NC2CCC(CN3CCCC3)CC2)C2C=CC1C21CC1 (single isomer, unassigned) [Example 218]
19 | 1.1 nM | 4620 nM | NC(=O)CCNC(=O)[C@H]1[C@H](C(=O)Nc2ccc(Br)cc2)[C@@H]2C=C[C@H]1C21CC1 [Example 13, (5R)—N^5-(4-Bromophenyl)-(6R)—N^6-(2-carbamoyl-ethyl)-(4S,7R)-[4,7-ethenylene-spiro[2.4]heptane]-5,6-dicarboxamide]
20 | 1 nM | 1300 nM | O=C(NCCCO)[C@H]1[C@H](C(=O)Nc2ccc(Br)cc2)[C@@H]2C=C[C@H]1C21CC1 [Example 12, (5R)—N^5-(4-Bromophenyl)-(6R)—N^6-(3-hydroxy-propyl)-(4S,7R)-[4,7-ethenylene-spiro[2.4]heptane]-5,6-dicarboxamide]
21 | 0.41 nM | 1260 nM | CN(C)CCNC(=O)[C@H]1[C@H](C(=O)Nc2ccc(Br)cc2)[C@@H]2C=C[C@H]1C21CC1 [Example 6, (5R)—N^5-(4-Bromophenyl)-(6R)—N^6-(2-N,N-dimethyl-amino-ethyl)-(4S,7R)-[4,7-ethenylene-spiro[2.4]heptane]-5,6-dicarboxamide]
22 | 0.35 nM | 15 nM | O=C(NCCCCN1CCCC1)[C@H]1[C@H](C(=O)Nc2ccc(Br)cc2)[C@@H]2CC[C@H]1C21CC1 [Example 113, (5R)—N^5-(4-Bromophenyl)-(6R)—N^6-(4-pyrrolidin-1-yl-butyl)-(4S,7R)-[4,7-ethylene-spiro[2.4]heptane]-5,6-dicarboxamide]
23 | 0.34 nM | 1160 nM | NCCCCNC(=O)[C@H]1[C@H](C(=O)Nc2ccc(Br)cc2)[C@@H]2C=C[C@H]1C21CC1 (relative stereo) [Example 5, (5R*)—N^5-(4-Bromophenyl)-(6R*)—N^6-(4-amino-butyl)-(4S*,7R*)-[4,7-ethenylene-spiro[2.4]heptane]-5,6-dicarboxamide]
24 | 0.16 nM | 571 nM | NCCCCCNC(=O)C1C(C(=O)Nc2ccc(Br)cc2)C2C=CC1C21CC1 (stereo not drawn) [Example 1, (5R*)—N^5-(4-Bromophenyl)-(6R*)—N^6-(5-amino-pentyl)-(4S*,7R*)-[4,7-ethenylene-spiro[2.4]heptane]-5,6-dicarboxamide]
25 | 0.13 nM | 1150 nM | NCC1CCC(NC(=O)C2C(C(=O)Nc3ccc(Br)cc3)C3C=CC2C32CC2)CC1 (single isomer, unassigned) [Example 420]
26 | 0.1 nM | 46 nM | O=C(NCCCCN1CCCC1)[C@H]1[C@H](C(=O)Nc2ccc(Br)cc2)[C@@H]2C=C[C@H]1C21CC1 [Example 2, (5R)—N^5-(4-Bromophenyl)-(6R)—N^6-(4-pyrrolidin-1-yl-butyl)-(4S,7R)-[4,7-ethenylene-spiro[2.4]heptane]-5,6-dicarboxamide]
